Test results as given in US12023345B2, “Compositions and methods for treating lysosomal disorders” (RUSH UNIVERSITY MEDICAL CENTER, priority 2014, dated 2024).

Tests used:
[1] = test system: Lamp2, Limp2 and Npc1; experiment: mRNA of lysosomal genes by real-time PCR in mouse primary astrocytes; assay type: cell-based; conditions: 5 μM aspirin, serum-free
Procedure: Quantitative Real-Time PCR: The mRNA quantification was performed using the ABIPrism7700 sequence detection system (Applied Biosystems, Foster City, CA) using SYBR Select master mix (Applied Biosystems). The mRNA expression of the targeted genes was normalized to the level of Gapdh mRNA and data was processed by the ABI Sequence Detection System 1.6 software.

[2] = test system: mouse primary astrocytes; experiment: LysoTracker staining of mouse primary astrocytes (lysosomal biogenesis); assay type: cell-based; conditions: 24 h
Procedure: [The procedure below names another cell line; the source lists this cell line under the same test.] LysoTracker Staining: Fibroblasts cultured to 70-80% confluence were subjected to different stimuli under reduced serum (2%) DMEM medium followed by incubation with 75 nM LysoTracker Red DND99 (Invitrogen) for 45 mins. Cells were then washed thoroughly with filtered PBS and mounted on glass slides and viewed under BX41 fluorescence microscope

[3] = test system: Tfeb; experiment: TFEB mRNA by semi-quantitative RT-PCR in mouse primary astrocytes; assay type: cell-based; conditions: different concentrations, 5 hr, serum-free
Procedure: Semi-Quantitative Reverse Transcriptase-Coupled Polymerase Chain Reaction (RT-PCR): Total RNA was isolated from mouse primary astrocytes and human primary astrocytes using RNA-Easy Qiagen (Valencia, CA) kit following manufactures protocol. Semi-quantitative RTPCR was carried out as described earlier (28) using oligo (dT) 12-18 as primer and moloney murine leukemia virus reverse transcriptase (MMLV-RT, Invitrogen) in a 20 μl reaction mixture. The resulting cDNA was appropriately amplified using Promega Master Mix (Madison, WI) and the following primers (Invitrogen) for murine genes: […]
Amplified products were electrophoresed on 2% agarose (Invitrogen) gels and visualized by ethidium bromide (Invitrogen) staining. Glyceraldehyde-3-phosphate dehydrogenase (Gapdh) mRNA was used as a loading control to ascertain that an equivalent amount of cDNA was synthesized from each sample.
Mouse primary astrocytes were incubated with different concentrations (see FIG. 9) of simvastatin and pravastatin (A), (B), cinnamic acid (C), and sodium phenylbutyrate and sodium benzoate (D) for 5 hr. under serum-free condition followed by monitoring the mRNA expression of TFEB by semi-quantitative RT-PCR. Sodium formate (D) was used as a negative control for sodium phenylbutyrate and sodium benzoate.

[4] = test system: TPP1; experiment: TPP1 activity assay on cell extract of primary mouse astrocytes; assay type: cell-based; conditions: 24 h
Procedure: 12(A) Cells were treated with different concentrations of aspirin for 24 h under serum-free condition followed by Western blot for TPP1. 12(B) Cells were treated with 5 μM aspirin for different time periods under serum-free condition followed by Western blot for TPP1. Actin was run as a house keeping molecule. 12(C) Cells were treated with different concentrations of aspirin for 24 h under serum-free condition followed by TPP1 activity assay using cell extract containing 5 μg of total protein and Ala-Ala-Phe 7-amido-4-methylcoumarin as substrate. Results represent three independent experiments.

[5] = biological target: T1, PPARα (Mus musculus, UniProt P23204); experiment: Electrophoretic mobility shift assay of DNA-binding activity of PPARα; assay type: cell-based; conditions: astrocytes, 5 μM aspirin, different min intervals
T1 construct: endogenous in cells; host or cells: primary mouse astrocytes (nuclear extracts)
T1 sequence (P23204 1-468): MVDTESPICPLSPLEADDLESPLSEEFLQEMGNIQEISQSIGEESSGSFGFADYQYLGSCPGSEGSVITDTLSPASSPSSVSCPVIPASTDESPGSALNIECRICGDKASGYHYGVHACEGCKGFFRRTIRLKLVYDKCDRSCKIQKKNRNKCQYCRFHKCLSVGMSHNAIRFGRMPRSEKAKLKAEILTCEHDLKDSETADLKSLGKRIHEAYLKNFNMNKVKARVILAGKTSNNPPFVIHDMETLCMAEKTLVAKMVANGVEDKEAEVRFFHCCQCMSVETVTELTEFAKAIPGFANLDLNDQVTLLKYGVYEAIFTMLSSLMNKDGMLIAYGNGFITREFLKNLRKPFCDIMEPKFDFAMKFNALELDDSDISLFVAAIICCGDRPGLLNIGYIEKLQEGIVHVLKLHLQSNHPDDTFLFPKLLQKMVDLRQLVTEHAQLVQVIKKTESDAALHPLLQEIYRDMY
T1 sequence (P28700 1-467 partner): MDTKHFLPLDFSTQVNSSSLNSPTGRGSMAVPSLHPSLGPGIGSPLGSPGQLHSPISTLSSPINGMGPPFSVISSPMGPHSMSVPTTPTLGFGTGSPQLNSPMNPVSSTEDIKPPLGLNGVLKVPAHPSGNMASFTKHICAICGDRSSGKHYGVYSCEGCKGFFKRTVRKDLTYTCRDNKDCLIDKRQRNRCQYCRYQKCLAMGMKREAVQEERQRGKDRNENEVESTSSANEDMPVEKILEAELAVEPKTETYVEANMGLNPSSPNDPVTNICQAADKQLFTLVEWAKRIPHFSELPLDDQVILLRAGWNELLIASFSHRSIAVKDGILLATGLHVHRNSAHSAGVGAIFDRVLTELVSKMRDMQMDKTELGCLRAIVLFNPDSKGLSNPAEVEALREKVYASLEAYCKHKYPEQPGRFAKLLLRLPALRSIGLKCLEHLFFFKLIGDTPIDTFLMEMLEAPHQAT
Procedure: (§1) FIG. 14(A)-(B) illustrates activation of PPARα by aspirin in primary mouse astrocytes. 14(A) Cells were treated with 5 μM aspirin for different min intervals followed by isolation of nuclear extracts and electrophoretic mobility shift assay for monitoring DNA-binding activity of PPARα using PPARα-binding site of the Tfeb promoter as a probe. 14(B) Astrocytes isolated from wild type, PPARα (−/−) and PPARβ (−/−) mice were transfected with PPAR luciferase reporter (PPRE-x3-TK-luc) plasmid and after 24 h of transfection, cells were stimulated with different doses of aspirin. After 4 h, firefly luciferase activity was measured in total cell extracts. Results are mean +SD of three different experiments. ^ap<0.001 vs control.

[6] = test system: PPAR luciferase reporter (PPRE-x3-TK-luc); experiment: PPAR luciferase reporter (PPRE-x3-TK-luc) in astrocytes; assay type: cell-based, mouse; conditions: different doses of aspirin, 4 h
Procedure: as §1

[7] = at high doses; cited from earlier work

SMILES: CC(=O)Oc1ccccc1C(=O)O [aspirin]
- LAMP2 mRNA expression (real-time PCR), time course [1]: time-dependent increase in LAMP2 mRNA
- lysosomal biogenesis (lyso-tracker staining) ([2]; PPARα (−/−) astrocytes, 5 μM aspirin): not PPARα (−/−)
- lysosomal biogenesis (lyso-tracker staining) ([2]; PPARβ (−/−) astrocytes, 5 μM aspirin): increased lysosomal biogenesis
- lysosomal biogenesis (lyso-tracker staining) ([2]; WT astrocytes, 5 μM aspirin): increased lysosomal biogenesis
- lysosomal biogenesis (lyso-tracker staining) ([2]; astrocytes, aspirin 10 μM, serum-free): not very potent in increasing lysosomal biogenesis
- lysosomal biogenesis (lyso-tracker staining) ([2]; astrocytes, aspirin 2 and 5 μM, serum-free): markedly increased lysosomal biogenesis
- TFEB mRNA expression (semi-quantitative RT-PCR) [3]: upregulation of TFEB mRNA expression
- TPP1 activity ([4]; aspirin 10 μM): not 10 μM
- TPP1 activity ([4]; aspirin 2 and 5 μM): increase in TPP1 activity
- DNA-binding activity of PPARα (EMSA) [5]: time-dependent increase in PPARα activation
- PPRE-driven luciferase activity ([6]; PPARα (−/−) astrocytes): not PPARα (−/−)
- PPRE-driven luciferase activity ([6]; PPARβ (−/−) astrocytes): increased PPRE-driven luciferase activity
- PPRE-driven luciferase activity ([6]; WT astrocytes): increased PPRE-driven luciferase activity
- toxic effects [7]: gastric ulcers, stomach bleeding, and tinnitus
